Values belong to the molecule of their own block, whether it stands above or below them.
System: 596521-263-R-J1-PDC complex spheroids, viability % of control
Assay: Anticancer human tumor 596521-263-R-J1-PDC patient-derived soft tissue sarcoma cell line growth inhibition [GQUAD]
Settings: for IC50: curve of first compound; for viability, T/C: stronger effect = lower value
In short: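 Multi-cell-type spheroids of tumor cells with HUVEC and mesenchymal stem cells, treated with drug combinations. Concentrations descend in half-log steps from near clinical Cmax, or from 10 microM where Cmax is unknown; viability read-out.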

[1] = second compound 0.0316 µM, first compound 0.0316 µM
[2] = second compound 0.0316 µM, first compound 0.1 µM
[3] = second compound 0.0316 µM, first compound 0.316 µM
[4] = second compound 0.0316 µM, first compound 1 µM
[5] = second compound 0.0316 µM, first compound 3.16 µM
[6] = second compound 0.0316 µM, first compound 10 µM
[7] = second compound 0.1 µM, first compound 0.0316 µM
[8] = second compound 0.1 µM, first compound 0.1 µM
[9] = second compound 0.1 µM, first compound 0.316 µM
[10] = second compound 0.1 µM, first compound 1 µM
[11] = second compound 0.1 µM, first compound 3.16 µM
[12] = second compound 0.1 µM, first compound 10 µM
[13] = second compound 0.316 µM, first compound 0.0316 µM
[14] = second compound 0.316 µM, first compound 0.1 µM
[15] = second compound 0.316 µM, first compound 0.316 µM
[16] = second compound 0.316 µM, first compound 1 µM
[17] = second compound 0.316 µM, first compound 3.16 µM
[18] = second compound 0.316 µM, first compound 10 µM
[19] = second compound 1 µM, first compound 0.0316 µM
[20] = second compound 1 µM, first compound 0.1 µM
[21] = second compound 1 µM, first compound 0.316 µM
[22] = second compound 1 µM, first compound 1 µM
[23] = second compound 1 µM, first compound 3.16 µM
[24] = second compound 1 µM, first compound 10 µM
[25] = second compound 3.16 µM, first compound 0.0316 µM
[26] = second compound 3.16 µM, first compound 0.1 µM
[27] = second compound 3.16 µM, first compound 0.316 µM
[28] = second compound 3.16 µM, first compound 1 µM
[29] = second compound 3.16 µM, first compound 3.16 µM
[30] = second compound 3.16 µM, first compound 10 µM
[31] = second compound 10 µM, first compound 0.0316 µM
[32] = second compound 10 µM, first compound 0.1 µM
[33] = second compound 10 µM, first compound 0.316 µM
[34] = second compound 10 µM, first compound 1 µM
[35] = second compound 10 µM, first compound 3.16 µM
[36] = second compound 10 µM, first compound 10 µM
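Further: spheroids exposed to drugs for 7 days before viability reading.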
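Wherever viability, T/C is given: 100% = DMSO vehicle control viability.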

IC50 (second compound 0.0316 µM): > 10000 nM
IC50 (second compound 0.1 µM): > 10000 nM
IC50 (second compound 0.316 µM): > 10000 nM
IC50 (second compound 1 µM): > 10000 nM
IC50 (second compound 3.16 µM): 224 nM
IC50 (second compound 10 µM): < 31.6 nM
Compound: CC(C)n1c(=O)n(C)c2cnc3cc(F)c(-c4ccc(OCCCN5CCCCC5)nc4)cc3c21 + Cc1cnc(CNC(=O)c2c(=O)c3ccc(N4CCCN(C)CC4)nc3n3c2sc2ccccc23)cn1
viability, T/C [1]: 82.1%
viability, T/C [2]: 67%
viability, T/C [3]: 78.3%
viability, T/C [4]: 73%
viability, T/C [5]: 75.5%
viability, T/C [6]: 61.9%
viability, T/C [7]: 70.6%
viability, T/C [8]: 61.3%
viability, T/C [9]: 68.2%
viability, T/C [10]: 63.9%
viability, T/C [11]: 58.6%
viability, T/C [12]: 57.8%
viability, T/C [13]: 69.3%
viability, T/C [14]: 67.3%
viability, T/C [15]: 63.5%
viability, T/C [16]: 62.5%
viability, T/C [17]: 62.4%
viability, T/C [18]: 47.6%
viability, T/C [19]: 63.8%
viability, T/C [20]: 61.8%
viability, T/C [21]: 52.3%
viability, T/C [22]: 54.3%
viability, T/C [23]: 64.4%
viability, T/C [24]: 48.3%
viability, T/C [25]: 51.6%
viability, T/C [26]: 53.3%
viability, T/C [27]: 49.7%
viability, T/C [28]: 46.4%
viability, T/C [29]: 42.5%
viability, T/C [30]: 40.3%
viability, T/C [31]: 51.8%
viability, T/C [32]: 44.7%
viability, T/C [33]: 44.9%
viability, T/C [34]: 44.9%
viability, T/C [35]: 46.7%
viability, T/C [36]: 9.8%

IC50 (second compound 0.0316 µM): 333 nM
IC50 (second compound 0.1 µM): 367 nM
IC50 (second compound 0.316 µM): 191 nM
IC50 (second compound 1 µM): 62.4 nM
IC50 (second compound 3.16 µM): 90.9 nM
IC50 (second compound 10 µM): < 31.6 nM
Compound: CC1COCCN1c1cc(-c2ccnn2C)c2ccnc(-c3ccn[nH]3)c2n1 (stereo unspecified) + Cc1cnc(CNC(=O)c2c(=O)c3ccc(N4CCCN(C)CC4)nc3n3c2sc2ccccc23)cn1
viability, T/C [1]: 55.9%
viability, T/C [2]: 55.6%
viability, T/C [3]: 48.3%
viability, T/C [4]: 42.5%
viability, T/C [5]: 27.4%
viability, T/C [6]: 23.2%
viability, T/C [7]: 53.1%
viability, T/C [8]: 65.6%
viability, T/C [9]: 47%
viability, T/C [10]: 41.8%
viability, T/C [11]: 29.7%
viability, T/C [12]: 28.1%
viability, T/C [13]: 57.4%
viability, T/C [14]: 51.3%
viability, T/C [15]: 49%
viability, T/C [16]: 41.2%
viability, T/C [17]: 33%
viability, T/C [18]: 25.1%
viability, T/C [19]: 52.2%
viability, T/C [20]: 47.8%
viability, T/C [21]: 42.9%
viability, T/C [22]: 34%
viability, T/C [23]: 26.8%
viability, T/C [24]: 26.6%
viability, T/C [25]: 49.8%
viability, T/C [26]: 52.3%
viability, T/C [27]: 45.3%
viability, T/C [28]: 38%
viability, T/C [29]: 29.4%
viability, T/C [30]: 21.2%
viability, T/C [31]: 39.7%
viability, T/C [32]: 35%
viability, T/C [33]: 33.3%
viability, T/C [34]: 30.4%
viability, T/C [35]: 25%
viability, T/C [36]: 14.1%

IC50 (second compound 0.0316 µM): 211 nM
IC50 (second compound 0.1 µM): 115 nM
IC50 (second compound 0.316 µM): 158 nM
IC50 (second compound 1 µM): 63.7 nM
IC50 (second compound 3.16 µM): < 31.6 nM
IC50 (second compound 10 µM): < 31.6 nM
Compound: CC1COCCN1c1cc(C2(O)CC3CCC(C2)O3)c2cnn(-c3ccn[nH]3)c2n1 (stereo unspecified) + Cc1cnc(CNC(=O)c2c(=O)c3ccc(N4CCCN(C)CC4)nc3n3c2sc2ccccc23)cn1
viability, T/C [1]: 65.1%
viability, T/C [2]: 60.9%
viability, T/C [3]: 42.7%
viability, T/C [4]: 34.6%
viability, T/C [5]: 25.5%
viability, T/C [6]: 13.8%
viability, T/C [7]: 61%
viability, T/C [8]: 49.9%
viability, T/C [9]: 42.3%
viability, T/C [10]: 33%
viability, T/C [11]: 24.9%
viability, T/C [12]: 15.2%
viability, T/C [13]: 56.9%
viability, T/C [14]: 54%
viability, T/C [15]: 47.1%
viability, T/C [16]: 29.7%
viability, T/C [17]: 26.5%
viability, T/C [18]: 13.6%
viability, T/C [19]: 56.2%
viability, T/C [20]: 44.2%
viability, T/C [21]: 38.9%
viability, T/C [22]: 31.4%
viability, T/C [23]: 23.9%
viability, T/C [24]: 13.8%
viability, T/C [25]: 49.2%
viability, T/C [26]: 40.2%
viability, T/C [27]: 41.5%
viability, T/C [28]: 24.8%
viability, T/C [29]: 27.5%
viability, T/C [30]: 14.4%
viability, T/C [31]: 37.7%
viability, T/C [32]: 32.6%
viability, T/C [33]: 33.6%
viability, T/C [34]: 27.9%
viability, T/C [35]: 18.2%
viability, T/C [36]: 4.21%

Source: PubChem BioAssay AID2060500 (Molecular Pharmacology Branch, DTP, NCI, 2025)
